{"source": "patent US20220168310A1", "about": "“INHIBITION OF ADENOVIRUS WITH FILOCICLOVIR” (Microbiotix, Inc., priority 2019, published 2022)", "key": {"Adenovirus 5 (AdV5)": {"tested_on": "Adenovirus 5 (AdV5)", "test": "Cytopathic effects (CPE) reduction assay, AdV5 in HFF cells, 384-well", "assay_type": "cell-based, human adenovirus", "description": "Antiviral and cytotoxicity data were obtained in a series of three to five separate experiments for each virus to provide an accurate estimate of antiviral activity and statistical data. Each assay included positive and negative control compounds as well as infected and uninfected controls to ensure the integrity of the experiment.\nThe CPE reduction assays were performed in monolayers of human foreskin fibroblast (HFF) cells (5000/well) in 384-well plates in assay media consisting of MEM with Earle's salts, 2% FBS and standard concentrations of L-glutamine, penicillin and gentamycin. 5000 cells were seeded in 384-well microtiter plates and incubated at 37° C. in a humidified 5% CO2 incubator for 24 hours to allow for formation of confluent monolayers.\nCell monolayers were infected at a multiplicity of infection (MOI) of approximately 0.005 PFU/cell with virus strains including AdV5. […] Cytopathology was determined by the addition of CellTiter-Glo® reagent (Promega, Madison, Wis.)."}, "adenovirus 7 (AdV7)": {"tested_on": "adenovirus 7 (AdV7)", "test": "CPE reduction assay, adenovirus 7", "assay_type": "cell-based, human adenovirus", "method": "Similar experiments were carried out with filociclovir against adenovirus 6, adenovirus 7, and adenovirus 8."}, "adenovirus 6 (AdV6)": {"tested_on": "adenovirus 6 (AdV6)", "test": "Neutral red survival assay, AdV6-infected A549 cells", "assay_type": "cell-based, human adenovirus", "conditions": "FIG. 2, A549 cells, 6 days post-infection", "source_text": "The neutral red cell cytotoxicity assay was used to detect cell viability or drug cytotoxicity. The principle of this assay is based on the detection of viable cells via the uptake of the dye neutral red. Neutral red is a eurhodin dye that stains lysosomes in viable cells. Viable cells can take up neutral red via active transport and incorporate the dye into their lysosomes, but non-viable cells are unable not take up this chromophore. Consequently, after washing, viable cells can release the incorporated dye under acidified-extracted conditions. The amount of released dye can be quantified and used to determine the total number of viable cells or drug cytotoxicity. As such, cytotoxicity is expressed as a concentration-dependent reduction of the uptake of neutral red after exposure to the compound under investigation.\nThe neutral red survival assays were carried out in a 96-well format. Briefly, A549 adenocarcinomic human alveolar basal epithelial cells were plated at a concentration of 6×10^3 cells per well one day prior to infection. AdV6 infections were carried out at 5×10^3 PFU per well (an estimated 0.5 PFU/cell at the time of infection). […] Filociclovir plates were read and the results were graphed using GraphPad Prism graphing and statistical software (GraphPad Software, San Diego, Calif.)."}, "Human AdV6": {"tested_on": "Human AdV6", "test": "Low dose filociclovir against intravenously administered AdV6 in immunosuppressed hamsters (Example 6)", "conditions": "for AdV6-induced liver damage, serum transaminase (ALT) / AdV6 replication in the liver: 5 days post challenge; for AdV6 replication in the liver: TCID50", "method": "Three dose levels were tested: 1, 3, and 10 mg/kg p.o. q.d.\nAll hamsters were immunosuppressed using cyclophosphamide (CP) administered intraperitoneally at a dose of 140 mg/kg, and then twice weekly at a dose of 100 mg/kg. Filociclovir in powdered form was suspended in 0.4% carboxymethyl cellulose (Sigma C5678) at 0.1, 0.3, and 1.0 mg/ml and sonicated to visual homogeneity. Filociclovir was made up once weekly, aliquoted into daily portions, and stored at 4° C. Aliquots were allowed to equilibrate to room temperature before dosing.\nHamsters were distributed into 7 groups, 15 hamsters/group (see Table 4), immunosuppressed as described above, and injected i.v. with vehicle (Groups 1-2) or 4×10^10 PFU/kg of AdV6 (Groups 3-7). Groups 1 and 3 received drug vehicle (p.o. q.d.), Groups 2 and 6 received 10 mg/kg filociclovir (p.o. q.d.), Group 4 received 3 mg/kg filociclovir (p.o. q.d.), Group 5 received 1 mg/kg filociclovir (p.o. q.d.), and Group 7 received cidofovir (one dose of 37 mg/kg, followed by 20 mg/kg doses 3 times weekly). For all groups, drug administration started 1 day before challenge, and continued according to the schedule above for the duration of the study.\nThe body weights and any signs of morbidity of the animals were monitored and recorded daily. At 5 days post challenge, 5 hamsters (designated at the start of the experiment) from each group were sacrificed, and gross pathological observation was performed. Serum and liver were collected and virus burden in liver was determined by TCID50 assay and the serum was analyzed for transaminase levels. The remaining 10 hamsters were sacrificed at 14 days post challenge. Hamsters that became moribund before Day 14 were sacrificed as needed. In addition to the animals judged moribund by observation, we sacrificed all hamsters that lost more than 20% of their original body weight. For all animals, liver tissue was preserved in formalin for histopathological examination."}, "AdV6": {"tested_on": "AdV6", "test": "Delayed treatment with 10 mg/kg filociclovir after AdV6 challenge in immunosuppressed hamsters (Example 7)", "assay_type": "in vivo, Syrian hamsters", "method": "Aliquots are allowed to equilibrate to room temperature before dosing.\nHamsters were distributed into 8 groups, 15 hamsters each (Table 5), immunosuppressed as described above, and then injected i.v. with vehicle or 4×10^10 plaque forming units (PFU) of AdV6 per kg. Filociclovir was administered p.o. at 10 mg/kg q.d., starting at one day before, or 1, 2, 3, or 4 days after AdV6 injection.\nBody weights and any signs of morbidity in the hamsters were recorded daily. At 7 days post challenge, 5 hamsters from each group (designated at the start of the experiment) were sacrificed, and gross pathological observations were performed."}, "adenovirus": {"tested_on": "adenovirus", "test": "Dose-dependent inhibition of adenovirus infection (summary statement)", "assay_type": "cell-based", "conditions": "unidentified adenovirus"}, "adenovirus 19 (AdV19)": {"tested_on": "adenovirus 19 (AdV19)", "test": "Efficacy against adenovirus 19 (data not shown)"}, "[1]": {"conditions": "10 mg/kg q.d., listed as filociclovir"}}, "note": "Entries after “also recorded” stand apart in the source; their conditions may differ.", "data": [{"smiles": "Nc1nc2c(ncn2/C=C2/CC2(CO)CO)c(=O)[nH]1", "note": "[FCV, 2-amino-9-{(Z)-[2,2-bis(hydroxymethyl)cyclopropylidene]methyl}-3,9-dihydro-6H-purin-6-one]", "values": [{"measurement": "concentration as low as which is effective to reduce AdV replication", "setting": "Adenovirus 5 (AdV5); FIG. 1, AdV5", "result": 0.2, "unit": "µM"}, {"measurement": "EC50", "setting": "Adenovirus 5 (AdV5); Human mastadenovirus C, AdV5, HFF cells, 384 well CPE, average and SD from five independent experiments, read-out: EC50", "result": "2.2 ± 0.4", "unit": "µM"}, {"measurement": "CC50/EC50", "setting": "adenovirus 7 (AdV7)", "result": ">144"}, {"measurement": "EC50", "setting": "adenovirus 7 (AdV7); Human mastadenovirus B, unit not given in Table 2 (Table 1 in μM)", "result": 1.04, "unit": "µM"}, {"measurement": "concentration as low as which is effective to improve viability of AdV6 infected cells", "setting": "adenovirus 6 (AdV6)", "result": "10^−1 μM"}, {"measurement": "mortality", "setting": "Human AdV6; 1 mg/kg p.o. q.d., p=0.0449", "result": "moderate yet significant"}, {"measurement": "AdV6-induced liver damage, serum transaminase (ALT)", "setting": "Human AdV6; 1 mg/kg q.d., listed as Filociclovir", "result": "ineffective"}, {"measurement": "AdV6-induced liver damage, serum transaminase (ALT)", "setting": "Human AdV6; 1 mg/kg q.d., listed as filociclovir", "result": "largely ineffective"}, {"measurement": "body weight loss", "setting": "Human AdV6; 1 mg/kg, listed as Filociclovir", "result": "not efficacious"}, {"measurement": "body weight loss", "setting": "Human AdV6; 1 mg/kg, listed as filociclovir", "result": "unable to mitigate weight loss"}, {"measurement": "mortality", "setting": "Human AdV6; 3 mg/kg q.d. p.o.", "result": "completely prevented mortality"}, {"measurement": "AdV6 replication in the liver", "setting": "Human AdV6; 3 mg/kg q.d. p.o., listed as filociclovir", "result": "suppressed virus replication to an intermediate level; also recorded: inhibits AdV6 replication in the liver"}, {"measurement": "AdV6-induced liver damage, serum transaminase (ALT)", "setting": "Human AdV6; 3 mg/kg, p=0.0419, listed as Filociclovir", "result": "mitigated the pathology"}, {"measurement": "AdV6-induced liver damage, serum transaminase (ALT)", "setting": "Human AdV6; 3 mg/kg, p=0.0419, listed as filociclovir", "result": "moderate yet significant effect"}, {"measurement": "body weight loss", "setting": "Human AdV6; 3 mg/kg, listed as Filociclovir", "result": "moderately efficacious"}, {"measurement": "body weight loss", "setting": "Human AdV6; 3 mg/kg, listed as filociclovir", "result": "partially reversed"}, {"measurement": "mortality", "setting": "Human AdV6; 10 mg/kg q.d. p.o.", "result": "completely prevented mortality"}, {"measurement": "AdV6 replication in the liver", "setting": "Human AdV6; [1]", "result": "inhibits AdV6 replication in the liver"}, {"measurement": "AdV6-induced liver damage, serum transaminase (ALT)", "setting": "Human AdV6; 10 mg/kg q.d., listed as Filociclovir", "result": "mitigated the pathology"}, {"measurement": "AdV6-induced liver damage, serum transaminase (ALT)", "setting": "Human AdV6; [1]", "result": "prevented AdV6-induced liver damage"}, {"measurement": "body weight of uninfected hamsters", "setting": "Human AdV6; 10 mg/kg, uninfected", "result": "did not result in body weight loss"}, {"measurement": "body weight loss", "setting": "Human AdV6; 10 mg/kg, listed as Filociclovir", "result": "completely prevented body weight loss"}, {"measurement": "body weight loss", "setting": "Human AdV6; 10 mg/kg, listed as filociclovir", "result": "completely reversed"}, {"measurement": "toxic effects in treated hamsters", "setting": "Human AdV6; 1, 3, 10 mg/kg p.o. q.d.", "result": "No toxic effects were observed"}, {"measurement": "treatment-related deaths", "setting": "Human AdV6; AdV6+1 mg/kg group (9 in AdV6+Vehicle)", "result": 5}, {"measurement": "hamsters with mottled liver and enlarged gall bladder", "setting": "Human AdV6; AdV6+1 mg/kg, Day 5 sacrifice (4 in AdV6+Vehicle)", "result": 3}, {"measurement": "morbidity and mortality (survival)", "setting": "AdV6; 10 mg/kg p.o. q.d. started day −1, +1, +2, +3 (p=0.0005) or +4 (p=0.0023) vs AdV6+Vehicle, listed as filociclovir", "result": "efficacious; also recorded: effective to prevent morbidity and mortality"}, {"measurement": "prevention of pathology caused by intravenous AdV6 infection", "setting": "AdV6; 10 mg/kg p.o. q.d., up to 4 days post-infection", "result": "safe and effective"}, {"measurement": "AdV6 replication in the liver", "setting": "AdV6; 10 mg/kg, start 4 days post challenge", "result": "inhibits AdV6 replication in the liver"}, {"measurement": "liver pathology, transaminase (ALT) levels", "setting": "AdV6; 10 mg/kg, start up to 4 days post challenge, day +4 p=0.1452", "result": "mitigates liver pathology"}, {"measurement": "IC50", "setting": "adenovirus", "result": "≤ 5", "unit": "µM"}, {"measurement": "treat or prevent infection", "setting": "adenovirus 19 (AdV19)", "result": "effective"}]}]}
